{
  "source": "patent US20230384333A1",
  "about": "(priority 2020, published 2023)",
  "key": {"psychLight1 [1]": {"target": "T1, psychLight1 (Homo sapiens, UniProt P28223, E264Q/I181A)", "T1 sequence (P28223 whole entry I181A/E264Q, looked up)": "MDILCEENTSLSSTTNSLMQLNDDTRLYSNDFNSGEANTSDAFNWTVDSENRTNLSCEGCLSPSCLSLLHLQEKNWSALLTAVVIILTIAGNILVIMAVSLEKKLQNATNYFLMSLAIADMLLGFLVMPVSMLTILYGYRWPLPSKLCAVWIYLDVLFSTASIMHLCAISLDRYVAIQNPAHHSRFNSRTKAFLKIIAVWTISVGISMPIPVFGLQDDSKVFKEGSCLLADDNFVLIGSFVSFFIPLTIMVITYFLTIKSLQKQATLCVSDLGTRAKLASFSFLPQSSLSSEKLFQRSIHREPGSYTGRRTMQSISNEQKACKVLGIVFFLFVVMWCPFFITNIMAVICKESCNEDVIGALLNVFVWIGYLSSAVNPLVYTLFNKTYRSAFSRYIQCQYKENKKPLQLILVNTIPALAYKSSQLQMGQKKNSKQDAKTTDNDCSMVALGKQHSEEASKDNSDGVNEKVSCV", "type": "cell-based"}, "psychLight1 [2]": {"target": "T1, psychLight1", "test": "cell-based", "type": "cell-based", "parameters": "fluorescence intensity change, confocal with psychLight1: dose or concentration left out as unconfirmed", "conditions": "n=3", "procedure": "HEK293T cells were grown in DMEM, supplemented with fetal bovine serum (FBS) and penicillin-streptomycin. Cells were trans-fected with Effectene according to the manufacturer's instructions. Prior to imaging, cells were washed with Hank's Balanced Salt Solution (HBSS) supplemented with 2 mM MgCl2 and 2 mM CaCl2). All images were collected in HBSS containing Mg^2+ and Ca^2+.\nHEK293T cells were plated and transfected concurrently 24 h prior to each experiment using the QIAGEN Effectene Transfection\nDose-response experiments were performed using an Automate Perfusion System. Cells (HEK293T) were grown on 12 mm cover-slips and transfected with psychLight1. The coverslips were then placed into a coverslip holder and washed with 5 mL of HBSS containing 2 mM MgCl2 and 2 mM CaCl2). Cells were perfused first with 5 mL of 0.1% DMSO, then drugs in ascending concentrations from 1 pM to […] were added, with the concentration of DMSO being held constant at 0.10%. […] For the competition studies described in FIG. 19, HEK293T cells were prepared as described above; however, the cells were first exposed to 5 mL of 0.2% DMSO. […] Analysis was performed by taking 3 ROIs on the cell membrane using ImageJ and calculating the mean intensity for each ROI across the time-points. Finally, the DF/F was calculated using the average of the baseline (0.1 or 0.2% DMSO) and the average intensity between each dosage over the average of the baseline."}, "psychLight2 [3]": {"test_system": "psychLight2", "test": "PSYLI2 high-content imaging, agonist mode", "type": "cell-based, human", "parameters": "dose or concentration left out as unconfirmed"}, "psychLight": {"test_system": "psychLight", "test": "Schild regression analysis in PSYLI2 cells", "type": "cell-based, human", "procedure": "During imaging, […] of imaging media were added to each well of the assay plate. Wells were then imaged on a Lecia DMi8 using Leica Application Suite X (V3.6.0.20104) at 40×(N.A.=0.6) with 5 regions of interest (ROI) taken per well using the default 5 ROI pattern for each well with no bias to location and no overlap of the ROIs (exposure=350 ms, LED power=80%). Next, […] from the treatment plate was transferred to the assay plate for a final 1:1000 dilution of drug. All final drug treatments contained 0.1% DMSO. After 5 min of incubation, the same sites were re-imaged using the same settings. The data analysis method was the same as in agonist and antagonist mode."}, "[4]": {"test_system": "embryonic rat cortical neurons", "test": "Dendritogenesis (Sholl analysis) in cultured cortical neurons", "type": "cell-based", "procedure": "For the dendritogenesis experiments conducted using cultured E18 cortical neurons, timed-pregnant Sprague Dawley rats were obtained from Charles River Laboratories (Wilmington, MA). Full culturing, staining, and analysis details were performed as previously described."}, "[5]": {"test_system": "GPCR-based sensors (dopamine, adrenergic, opioid, and serotonin receptors)", "type": "cell-based", "conditions": "10 μM AAZ-A-154, agonist and antagonist mode"}, "VMAT2-HET mice": {"test_system": "VMAT2-HET mice", "test": "Sucrose preference (anhedonia) test", "type": "in vivo, mouse", "procedure": "Adult male and female wild-type (WT) and VMAT2 heterozygous (VMAT2-HET) mice were used for these experiments, and they were housed in a humidity- and temperature-controlled room on a 14:10 h light:dark cycle. Mice were housed individually 48 h prior to the experiment with ad libitum access to chow and water. For each day's experiment, bottles were prepared with water or a 1% sucrose solution and these were weighed just prior to the test. Two h prior to the beginning of the dark cycle, the home-cage water bottle was removed. One h after onset of the dark cycle, a pair of bottles was placed into the home-cage. The mouse was given 2 h to drink, after which the bottles were removed and weighed immediately. Approximately 1 h later, the home-cage water bottle was returned. […] Once criterion was achieved, the mouse was presented with the water-sucrose (W-S) pairing. The next day (day 1), mice were administered an acute injection of AAZ-A-154 (15 mg/kg, i.p.) and 5 min later were given the W-S pairing (i.e., day 1). Subsequent W-S pairings were presented on days 2 and 4, and then at 4-day intervals. Preference for the sucrose bottle was calculated as the volume of sucrose consumed minus the volume of water consumed, divided by the total volume of liquid consumed. Preference scores approaching “0” indicated no preference for sucrose or water, whereas positive scores signified a preference for sucrose and negative scores denoted a preference for water."}, "C57BL/6J mice [6]": {"test_system": "C57BL/6J mice", "test": "Head-twitch response (HTR) assay", "type": "in vivo, mouse", "conditions": "i.p., multiple doses", "procedure": "(§1) The HTR assay was performed as described previously using both male and female C57BL/6J mice (2 male and 2 female=4 total per treatment). The mice were obtained from The Jackson Laboratory (Sacramento, C.A.) and were approximately 8-weeks old at the time of the experiments. Compounds were administered (5 mL/kg, i.p.) using 0.9% saline as the vehicle. After injection, animals were placed into an empty cage (8″×13″×5″) and HTRs were videotaped, scored later by two blinded observers, and the results were averaged (interpersonnel kappas, Pearson correlation coefficient>0.91). Locomotion was assessed using AnyMaze automated tracking software."}, "psychLight2 [7]": {"test_system": "psychLight2", "test": "PSYLI2 high-content imaging, agonist mode", "type": "cell-based, human", "conditions": "10 μM compound, hit limit 1 SD from vehicle", "procedure": "(§2) High-Content Imaging Experiments. Glass bottom 96-well plates (P96-1.5H-N, Cellvis) were coated with 50 μg/mL of poly-D-lysine (Sigma, P6407-5MG) and 10 μg/mL laminin (Sigma, L2020) overnight in an incubator (37° C., 5% CO2). […] Immediately prior to an experiment, stock solutions of drugs in DMSO (10 mM) were first diluted 1:100 in imaging media distributed across an empty 96-well plate (treatment plate) in triplicates following a randomized plate map. […] Cells grown in a separate 96-well plate (assay plate) were gently washed (3×) with imaging media, and the wells were filled with an appropriate volume of imaging media for the respective experiment (vide infra).\n(§3) For agonist mode, […] of imaging media was added to each well of the assay plate. Wells were then imaged on a Lecia DMi8 using Leica Application Suite X (V3.6.0.20104) at 40×(N.A.=0.6) with 5 regions of interest (ROI) taken per well using the default 5 ROI pattern for each well with no bias to location and no overlap of the ROIs (exposure=350 ms, LED power=80%). Next, 20 μL from the treatment plate was transferred to the assay plate for a total 1:1000 dilution of drug (10 μM drug, 0.1% DMSO). […] All final concentrations of drugs were 10 μM (0.1% DMSO) in agonist mode unless stated otherwise. After 5 min of incubation, the same sites were re-imaged using the same settings.\nOnce imaging was complete, the images were exported, put into a stack, and analyzed using ImageJ Fiji (ver. 1.51v) by using the rectangle function to draw an ROI around the cell membrane (one cell per image) on both the pre- and posttreatment images. ROI sizes within each plate were kept the same and saved to the ROI manager in ImageJ (ctrl+T). Images were then measured using the “multi measure” function in the ROI manager. Measurements were saved and exported. Analysis of the data was done by taking the average of each individual well's ROIs before and after drugs were added. Then the ΔF/F values for each well were calculated using the following equation: […]\nas §2, with “Glass” for “High-Content Imaging Experiments. Glass”, “50 µg/mL” for “50 μg/mL”, “10 pg/mL of” for “10 μg/mL”, “were” for “were first”, “in triplicate” for “in triplicates”, “washed 3×” for “washed (3×)”\nas §3, with “agonist mode experiments,” for “agonist mode,”, “media were” for “media was”, “20 pL” for “20 μL”, “plate containing” for “plate for”, “a” for “a total”, “(10 pM as the final concentration in” for “(10 μM drug,”\nOnce imaging was complete, the images were exported, and analyzed using self-written MATLAB script. Script will be deposit on to Github. In short, segmentation was performed on individual images and a mask highlighting the membrane of the HEK293T cells was generated. Pixel intensities were obtained from the mask-highlighted area and exported into Excel. The ΔF/F values for each well were calculated using the following equation: […]"}, "C57BL/6J mice [8]": {"test_system": "C57BL/6J mice", "test": "Forced swim test (FST)", "type": "in vivo, mouse"}, "psychLight2 [9]": {"test_system": "psychLight2", "type": "cell-based, human", "procedure": "Compounds unlikely to bind to the sensor should produce minimal to no response in either agonist or antagonist mode. Therefore, a ligand score was calculated as: […]"}, "C57BL/6J mice [10]": {"test_system": "C57BL/6J mice", "test": "Locomotion assay", "type": "in vivo, mouse", "conditions": "i.p., multiple doses", "procedure": "as §1"}, "[11]": {"test": "Plate reader screening for compound fluorescence (cell-free)", "type": "physicochemical", "conditions": "10 μM, excitation 465 nm, emission 518 nm"}, "psychLight2 [12]": {"test_system": "psychLight2", "type": "cell-based, mouse"}, "[13]": {"test_system": "psychLight2 response to electrically evoked 5-HT release", "parameters": "species or system mouse", "conditions": "50 mM escitalopram as printed"}, "[14]": {"test_system": "5-HT levels reported by psychLight2 in DRN, BNST, BLA, OFC", "type": "in vivo, mouse", "conditions": "10 mg/kg, 30 mins prior to imaging"}},
  "note": "“And” between values parts separate entries of the source, which are not always exact repeats. Equal values may be shown once. “Also recorded” adds a separate entry of the source. Where a name gives a salt, the structure may show the parent alone.",
  "data": [
    {"smiles": "COc1ccc2c(CCN(C)C)c[nH]c2c1", "note": "[6-MeO, 6-methoxy-N,N-dimethyltrypta-mine]", "values": [
      {"measurement": "binding shown by competing off 5-HT", "setting": "psychLight1 [1]", "value": "capable of binding to the receptor despite the fact that they lack efficacy; also recorded: capable of binding to the receptor despite lacking efficacy; also recorded: can compete off 5-HT resulting in a reduction in psychLight fluorescence"},
      {"measurement": "fluorescence intensity change, confocal with psychLight1", "setting": "psychLight1 [2]", "value": "−1.1±4.6", "unit": "%"},
      {"measurement": "fluorescence intensity change, high content imager with psychLight2", "setting": "psychLight2 [3]", "value": "−3.0±2.7", "unit": "%"},
      {"measurement": "Schild regression (pA2) outcome", "setting": "psychLight", "value": "significantly less potent"}
    ]},
    {"smiles": "COc1ccc2c(ccn2C[C@@H](C)N(C)C)c1.O=C(O)/C=C/C(=O)O", "note": "[AAZ-A-154]", "values": [
      {"measurement": "dendritic arbor complexity (Sholl analysis)", "setting": "[4]", "value": "increased dendritic arbor complexity; also recorded: increases dendritic arbor complexity to a comparable extent as the fast-acting antidepressant ketamine"},
      {"measurement": "effect on dendritic growth in presence of ketanserin", "setting": "[4]", "value": "abrogated by the 5-HT2A antagonist ketanserin; also recorded: abolished by the 5-HT2R antagonist ketanserin"},
      {"measurement": "selectivity across receptor-based sensors", "setting": "[5]", "value": "high selectivity for 5-HT2 receptors"},
      {"measurement": "sucrose preference of WT animals", "setting": "VMAT2-HET mice; 15 mg/kg i.p.", "value": "had no effect on WT animals; also recorded: did not modify sucrose preference in the WT animals"},
      {"measurement": "persistence of anti-anhedonic effect", "setting": "VMAT2-HET mice; VMAT2-HET mice, single injection 15 mg/kg, listed as AAZ, 15 mg/kg", "value": "at least 12 days"},
      {"measurement": "duration of beneficial behavioral effects", "setting": "VMAT2-HET mice; rodents, single administration", "value": "> 1 week and > 2 week"},
      {"measurement": "sucrose preference of VMAT2-HET mice after dosing", "setting": "VMAT2-HET mice; single injection 15 mg/kg i.p.", "value": "sucrose preference that was indistinguishable from WT controls"},
      {"measurement": "head-twitch response (HTR)", "setting": "C57BL/6J mice [6]", "value": "did not produce any head-twitches, even up to doses as high as 100 mg/kg; also recorded: failed to produce any head-twitches, even up to doses as high as 100 mg/kg"},
      {"measurement": "Schild regression (pA2) outcome", "setting": "psychLight", "value": "psychLight competitive antagonist"},
      {"measurement": "screen outcome in agonist mode", "setting": "psychLight2 [7]", "value": "decreased the intrinsic fluorescence of psychLight"},
      {"measurement": "immobility in the forced swim test", "setting": "C57BL/6J mice [8]; 20 mg/kg i.p.", "value": "decreased immobility"},
      {"measurement": "time course of antidepressant-like effects in FST", "setting": "C57BL/6J mice [8]; single administration 20 mg/kg, tested 30 min and 1 week later", "value": "both rapid (30 min) and long-lasting (1 week) antidepressant-like effects"},
      {"measurement": "ligand score", "setting": "psychLight2 [9]", "value": "favorable ligand score"},
      {"measurement": "locomotion", "setting": "C57BL/6J mice [10]", "value": "a high dose of the compound did decrease locomotion; also recorded: a high dose of AAZ-A-154 decreased locomotion; also recorded: only decreases locomotion at a very high dose (100 mg/kg)"}
    ]},
    {"smiles": "CCN(CC)C(=O)[C@@H]1C=C2c3cccc4[nH]c(Br)c(c34)C[C@H]2N(C)C1", "note": "[BOL-148, 2-bromo-lysergic acid di-ethylamide]", "values": [
      {"measurement": "origin of fluorescence signal, cell-free vs PSYLI2 cells", "setting": "[11]", "value": "due to the inherent fluorescence of these compounds, and not due to activation of the sensor"},
      {"measurement": "screen outcome in agonist mode", "setting": "psychLight2 [7]", "value": "producing positive signals; also recorded: produced unexpected fluorescence signals"}
    ]},
    {"smiles": "CP(C)C.F[P-](F)(F)(F)(F)F.F[P-](F)(F)(F)(F)F.NCCc1c[nH]c2ccc(O)cc12.[Ru+2].c1ccc(-c2ccccn2)nc1.c1ccc(-c2ccccn2)nc1", "note": "[RuBi-5-HT]", "values": [
      {"measurement": "ΔpL2/tdT (psychLight2 to tdTomato ratio vs baseline)", "setting": "psychLight2 [12]", "value": "111.2%±0.7%"}
    ]},
    {"smiles": "CN(C)CCC[C@@]1(c2ccc(F)cc2)OCc2cc(C#N)ccc21", "note": "[escitalopram, escitalopram oxalate]", "values": [
      {"measurement": "ΔF/F of psychLight2 response to electrical stimuli", "setting": "[13]", "value": "18.4%±4.3%"},
      {"measurement": "effect on 5-HT dynamics following foot shock", "setting": "[14]", "value": "mitigated the reduction in 5-HT levels observed following foot shock; also recorded: delayed the return of elevated 5-HT levels to baseline"}
    ]}
  ]
}
